pIC50: −log10 of the molar value.
Assays:
[1] = test system: serum cholesterol, ovariectomized rats; test: Serum cholesterol in ovariectomized rats (4 days daily oral dosing); format: in vivo, rat (female Sprague Dawley); settings: for inhibition in vivo at 0.1 mg/kg: 0.1 mg/kg PO; for inhibition in vivo at 1 mg/kg: 1.0 mg/kg PO; for inhibition in vivo at 10 mg/kg: 10.0 mg/kg PO
Procedure: (§1) In the examples illustrating the methods, a postmenopausal model was used in which effects of different treatments upon circulating lipids were determined.
(§2) Seventy-five day old female Sprague Dawley rats (weight range of 200 to 225 g) were obtained from Charles River Laboratories (Portage, Mich.). The animals were either bilaterally ovariectomized (OVX) or exposed to a Sham surgical procedure at Charles River Laboratories, and then shipped after one week. Upon arrival, they were housed in metal hanging cages in groups of 3 or 4 per cage and had ad libitum access to food (calcium content approximately 0.5%) and water for one week. Room temperature was maintained at 22.2°±1.70° C. with a minimum relative humidity of 40%. The photoperiod in the room was 12 hours light and 12 hours dark.
(§3) After a one week acclimation period (therefore, two weeks post-OVX) daily dosing with test compound was initiated. […] Animals were dosed daily for 4 days. Following the dosing regimen, animals were weighed and anesthetized with a ketamine: Xylazine (2:1, V:V) mixture and a blood sample was collected by cardiac puncture. The animals were then sacrificed by asphyxiation with CO2, the uterus was removed through a midline incision, and a wet uterine weight was determined.
Blood samples were allowed to clot at room temperature for 2 hours, and serum was obtained following centrifugation for 10 minutes at 3000 rpm. Serum cholesterol was determined using a Boehringer Mannheim Diagnostics high performance cholesterol assay. Briefly the cholesterol was oxidized to cholest-4-en-3-one and hydrogen peroxide. The hydrogen peroxide was then reacted with phenol and 4-aminophenazone in the presence of peroxidase to produce a p-quinone imine dye, which was read spectrophotemetrically at 500 nm. Cholesterol concentration was then calculated against a standard curve. The entire assay was automated using a Biomek Automated Workstation. […]
(§4) The data presented in Table 1 below reflects the response of 5 to 6 rats per treatment.

[2] = test system: uterus, ovariectomized rats; test: Uterine weight in ovariectomized rats (4 days daily oral dosing); format: in vivo, rat (female Sprague Dawley); settings: for change in vivo at 0.1 mg/kg: 0.1 mg/kg PO; for change in vivo at 1 mg/kg: 1.0 mg/kg PO; for change in vivo at 10 mg/kg: 10.0 mg/kg PO
Procedure: as §1, §2, §3
This uterine response to estrogen is well recognized in the art.
as §4

[3] = test system: Uterine Eosinophil Peroxidase (EPO); test: Uterine Eosinophil Peroxidase (EPO) Assay in ovariectomized rats; format: in vivo, rat (female Sprague Dawley); parameters: Uterine EPO (Vmax): unit not given here
Excerpt: as §2, §3
Uteri were kept at 4° C. until time of enzymatic analysis. The uteri were then homogenized in 50 volumes of 50 mM Tris buffer (pH-8.0) containing 0.005% Triton X-100. Upon addition of 0.01% hydrogen peroxide and 10 mM O-phenylenediamine (final concentrations) in Tris buffer, increase in absorbance was monitored for one minute at 450 nm. The presence of eosonophils in the uterus is an indication of estrogenic activity of a compound. The maximal velocity of a 15 second interval was determined over the initial, linear portion of the reaction curve.
As is expressed in the data below, estrogenicity also was assessed by evaluating the adverse response of eosinophil infiltration into the uterus.
as §4

[4] = test system: Proximal Tibiae, ovariectomized rats; test: Osteoporosis Test Procedure: proximal tibiae quantitative computed tomography; format: in vivo, rat; settings: 35 days
Procedure: (§5) Following the General Preparation Procedure, infra, the rats were treated daily for 35 days (6 rats per treatment group) and sacrificed by carbon dioxide asphyxiation on the 36th day. The 35 day time period was sufficient to allow maximal reduction in bone density, measured as described herein. At the time of sacrifice, the uteri were removed, dissected free of extraneous tissue, and the fluid contents were expelled before determination of wet weight in order to confirm estrogen deficiency associated with complete ovariectomy. […] The uteri were then placed in 10% neutral buffered formalin to allow for subsequent histological analysis. The right femurs were excised and digitilized x-rays generated and analyzed by an image analysis program (NIH image) at the distal metaphysis. The proximal aspect of the tibiae from these animals were also scanned by quantitative computed tomography. […] Distal femur metaphysis and proximal tibiae data presented in Tables 2 and 3 below, respectively are the results of formula I compound treatments compared to intact and ovariectomized test animals. Results are reported as percent protection relative to ovariectomy.

[5] = test system: MCF-7 breast adenocarcinoma cells; test: MCF-7 Proliferation Assay (tritiated thymidine); format: cell-based; settings: Homo sapiens, MCF7, 48 hours, read-out: IC50
Procedure: MCF-7 breast adenocarcinoma cells (ATCC HTB 22) were maintained in MEM (minimal essential medium, phenol red-free, Sigma, St. Louis, Mo.) supplimented with 10% fetal bovine serum (FBS) (V/V), L-glutamine (2 mM), sodium pyruvate (1 mM), HEPES {(N-[2-hydroxyethyl]piperazine-N'-[2-ethanesulfonic acid]10 mM}, non-essential amino acids and bovine insulin (1 ug/mL) (maintenance medium). Ten days prior to assay, MCF-7 cells were switched to maintenance medium supplemented with 10% dextran coated charcoal stripped fetal bovine serum (DCC-FBS) assay medium) in place of 10% FBS to deplete internal stores of steroids. MCF-7 cells were removed from maintenance flasks using cell dissociation medium (Ca++/Mg++ free HBSS (phenol red-free) supplemented with 10 mM HEPES and 2 mM EDTA). Cells were washed twice with assay medium and adjusted to 80,000 cells/mL. Approximately […] (8,000 cells) were added to flat-bottom microculture wells (Costar 3596) and incubated at 37° C. in a 5% CO2 humidified incubator for 48 hours to allow for cell adherence and equilibration after transfer. Serial dilutions of drugs or DMSO as a diluent control were prepared in assay medium and […] to triplicate microcultures followed by […] assay medium for a final volume of […]. After an additional 48 hours at 37° C. in a 5% CO2 humidified incubator, microcultures were pulsed with tritiated thymidine (1 uCi/well) for 4 hours. Cultures were terminated by freezing at -70° C. for 24 hours followed by thawing and harvesting of microcultures using a Skatron Semiautomatic Cell Harvester. Samples were counted by liquid scintillation using a Wallac BetaPlace b counter. Results in Table 4 below show the IC50 for certain compounds of the instant invention. […]

[6] = test system: Distal Femur Metaphysis, ovariectomized rats; test: Osteoporosis Test Procedure: distal femur metaphysis X-ray image analysis; format: in vivo, rat; settings: 35 days
Procedure: as §5

[7] = test system: bone, ovariectomized rats; test: Osteoporosis Test Procedure: bone loss in ovariectomized rats (summary); format: in vivo, rat; settings: orally administered
Procedure: as §5

[8] = Rattus norvegicus, 96 h, read-out: Serum Cholesterol (% decrease vs. OVX)
[9] = Rattus norvegicus, 96 h, read-out: Uterine weight (% increase vs. OVX)
[10] = orally administered at 0.1 mg/kg/day

Structure (SMILES)	inhibition in vivo at 0.1 mg/kg [1, 8]	inhibition in vivo at 1 mg/kg [1, 8]	inhibition in vivo at 10 mg/kg [1, 8]	change in vivo at 0.1 mg/kg [2, 9]	change in vivo at 1 mg/kg [2, 9]	change in vivo at 10 mg/kg [2, 9]	Uterine EPO (Vmax) ([3]; 0.1 mg/kg PO)	Uterine EPO (Vmax) ([3]; 1.0 mg/kg PO)	Uterine EPO (Vmax) ([3]; 10.0 mg/kg PO)	Proximal Tibiae Total Bone Mineral Density (Quantitative Computed Tomography), percent protection relative to ovariectomy ([4]; 0.1 mg/kg oral)	pIC50 [5]	further results
O=C(c1ccc(OCCN2CCCCC2)cc1)c1c(-c2cccc(O)c2)sc2cc(O)ccc12 [Example 12, [2-(3-Hydroxyphenyl)-6-hydroxybenzo[b]thien-3-yl][4-[2-(1-piperidinyl)ethoxy]phenyl]methanone]	24.3%	52.3%	49.1%	15.5%	22.7%	16.7%	2.0	2.6	2.4	-30.9%	8.49	Proximal Tibiae Total Bone Mineral Density (Quantitative Computed Tomography), percent protection relative to ovariectomy ([4]; 1.0 mg/kg oral): 51.5%; Proximal Tibiae Total Bone Mineral Density (Quantitative Computed Tomography), percent protection relative to ovariectomy ([4]; 10.0 mg/kg oral): 79.7%
O=C(c1ccc(OCCN2CCCCC2)cc1)c1c(-c2ccc(O)c(Cl)c2)sc2cc(O)ccc12 [Example 5, [2-(3-Chloro-4-hydroxyphenyl)-6-hydroxybenzo[b]thien-3-yl][4-[2-(1-piperidinyl)ethoxy]phenyl]methanone]	18.6%	52.6%	71.5%	-22.6%	20.7%	30.2%	1.2	2.4	1.3	–	8.64	–
COc1cc(O)ccc1-c1sc2cc(O)ccc2c1C(=O)c1ccc(OCCN2CCCCC2)cc1 [Example 18, [2-(4-Hydroxy-2-methoxyphenyl)-6-hydroxybenzo[b]thien-3-yl] [4-[2-(1-piperidinyl)ethoxy]phenyl]methanone]	58.8%	79%	71.6%	64.1%	69.2%	73.3%	34.2	81.9	135.9	–	8.70	–
O=C(c1ccc(OCCN2CCCCC2)cc1)c1c(-c2ccc(O)c(F)c2)sc2cc(O)ccc12 [Example 2, [2-(3-fluoro-4-hydroxyphenyl)-6-hydroxybenzo[b]thien-3-yl][4-[2-(1-piperidinyl)ethoxy]phenyl]methanone]	48.1%	64.7%	47.8%	53.3%	53.7%	25.9%	4.8	4.8	3.6	–	9.52	inhibition in vivo at 0.01 mg/kg ([1]; Rattus norvegicus, 96 h, 0.01 mg/kg PO, read-out: Serum Cholesterol (% decrease vs. OVX)): 21.7%; change in vivo at 0.01 mg/kg ([2]; Rattus norvegicus, 96 h, 0.01 mg/kg PO, read-out: Uterine weight (% increase vs. OVX)): 3.2%; Uterine EPO (Vmax) ([3]; 0.01 mg/kg PO): 4.8; Distal Femur Metaphysis (X-ray Image Analysis-Gray Score), percent protection relative to ovariectomy ([6]; 0.01 mg/kg oral): 34.5%; Distal Femur Metaphysis (X-ray Image Analysis-Gray Score), percent protection relative to ovariectomy ([6]; 0.1 mg/kg oral): 34.1%; Distal Femur Metaphysis (X-ray Image Analysis-Gray Score), percent protection relative to ovariectomy ([6]; 1.0 mg/kg oral): 68.0%; Distal Femur Metaphysis (X-ray Image Analysis-Gray Score), percent protection relative to ovariectomy ([6]; 10.0 mg/kg oral): 70.0%
C#C[C@]1(O)CC[C@H]2[C@@H]3CCc4cc(O)ccc4[C@H]3CC[C@@]21C [EE2, 17a-ethynyl estradiol, reference compound]	–	–	–	–	–	–	–	–	–	59.4%	–	serum cholesterol (in words) [1, 10]: caused a decrease in serum cholesterol; uterine weight (in words) [2, 10]: substantially greater than the uterine weight of ovariectomized test animals; Distal Femur Metaphysis (X-ray Image Analysis-Gray Score), percent protection relative to ovariectomy ([6]; oral, dose not given): 80.7%; prevention of bone loss (in words) [7]: prevented this loss
O=C(c1ccc(OCCN2CCCCC2)cc1)c1c(-c2cccc(F)c2)sc2cc(O)ccc12 [Example 22, [2-(3-Fluorophenyl)-6-hydroxybenzothien-3-yl] [4-[2-(1-piperidinyl)ethoxy]phenyl]methanone]	18.6%	62%	67.3%	53.2%	62.8%	26.9%	4.8	7.8	12.0	–	8.60	–

— patent US5998442A, “Benzo [B] thiophene compounds, and compositions for treating bone loss, and hyperlipidemia” (Eli Lilly and Company, priority 1997, dated 1999)
